Measurements published in article PMC5693942 (Scientific Reports, 2017).
Values after ≈ are worked out from the molar mass of the structure shown. Like-named read-outs stand apart in the source and are kept apart here.

How the values were obtained:
Daphnia magna = Daphnia magna acute 48 h immobilization assay (Daphtoxkit); format: in vivo; conditions: for Average effect (N immobile, 5 daphnids per replicate): 48 h;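 as to Average effect (N immobile, 5 daphnids per replicate): test concentrations in mg per L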
Method: Six concentration levels (5 concentrations plus control, four replicate beakers for each concentrations, five individual for each beaker) were tested. […] Each experiment was repeated in triplicate.

Tetrahymena thermophila = assay: microbe, parasite or virus in culture; format: cell-based; conditions: for EC50: Tetrahymena thermophila
Method: The tests were performed in accordance with the protocols provided by the manufacturer. […] The tests were carried out in disposable spectrophotometric cells of 1 cm path-length, to enable the measurement of the optical density (OD) at 440 nm. […] This change in OD over the time period is used to quantify the degree of inhibition and subsequent calculation of the EC50. Each concentration was repeated in duplicate.

[1] = Activated sludge simulating microcosms (degradation of FL, formation of NFL); format: physicochemical
Method: Activated sludge microcosm experiments were conducted in the dark and aerobic conditions. Three microcosm bioreactors were investigated in duplicate. They were filled with 2 L of fresh activated sludge collected from a local wastewater treatment plant. […] Dark conditions were simulated by covering up the flask with foil. Aerobic conditions were obtained using air from BOC air cylinder and a thorough mixing was maintained using magnetic stirrers. The experiment was 24 hours long. […] Collected samples were subsequently frozen until their analysis to prevent degradation of compounds.
The compounds studied are characterized as having low volatility and therefore volatilization was not considered as a potential removal pathway in studied microcosms. Photodegradation was also not considered (not relevant) under tested activated sludge conditions. Therefore the two important degradation mechanisms to consider were biodegradation and sorption to sludge. […] However, in this study, sorption equilibrium was assumed and therefore sorption could be considered negligible. This is because sorption is assumed to be fast when compared to biological degradation.
Several reports utilized pseudo-first-order kinetics for degradation of micropollutants in activated sludge reactors[48]–[50]. […] Pseudo-first order biodegradation rate k1 [L g^−1h^−1]

[2] = River water simulating microcosms (degradation of FL)

NCC[C@@H](Oc1ccc(C(F)(F)F)cc1)c1ccccc1 [(R)-NFL, (R)-3-phenyl-3-[4-(trifluoromethyl)phenoxy]-1-propanamine]
Average effect (N immobile, 5 daphnids per replicate) (Daphnia magna; concentration 0.5): 0.25
Average effect (N immobile, 5 daphnids per replicate) (Daphnia magna; concentration 1.5): 0.5
Average effect (N immobile, 5 daphnids per replicate) (Daphnia magna; concentration 5): 4.25
Average effect (N immobile, 5 daphnids per replicate) (Daphnia magna; concentration 16): 5
Average effect (N immobile, 5 daphnids per replicate) (Daphnia magna; concentration 50): 5
EC50 (Daphnia magna; Daphnia magna, D. magna, this study, read-out: EC50_48h -immobilization): 2.9 µg/mL (≈ 9.82 µM)
EC50 (Tetrahymena thermophila; T. thermophila, this study, read-out: EC50_24h -growth): 5.8 µg/mL (≈ 19.6 µM)
EC50 (Tetrahymena thermophila; definitive test, read-out: 24hEC50): 5.84 µg/mL (≈ 19.8 µM)
EC50 (Tetrahymena thermophila; range test, read-out: 24hEC50): 0.418 µg/mL (≈ 1.42 µM)
% I (percentage inhibition) (Tetrahymena thermophila; definitive test, conc. 0.220): -4.385%
% I (percentage inhibition) (Tetrahymena thermophila; definitive test, conc. 0.661): -11.658%
% I (percentage inhibition) (Tetrahymena thermophila; definitive test, conc. 22.017): 92.941%
% I (percentage inhibition) (Tetrahymena thermophila; definitive test, conc. 35.941): 94.118%
% I (percentage inhibition) (Tetrahymena thermophila; definitive test, conc. 57.505): 94.332%
% I (percentage inhibition) (Tetrahymena thermophila; definitive test, conc. 118.604): 103.743%
% I (percentage inhibition) (Tetrahymena thermophila; definitive test, conc. 179.703): 104.492%
% I (percentage inhibition) (Tetrahymena thermophila; range test, conc. 0.005): 10.591%
% I (percentage inhibition) (Tetrahymena thermophila; range test, conc. 0.050): -7.266%
% I (percentage inhibition) (Tetrahymena thermophila; range test, conc. 0.500): 50.369%
% I (percentage inhibition) (Tetrahymena thermophila; range test, conc. 5.000): 101.108%
% I (percentage inhibition) (Tetrahymena thermophila; range test, conc. 50.000): 106.897%
Concentration ([1]; 10 µg L-1 microcosm, time 0): 0.035 ± 0.009 µg/L
Concentration ([1]; 10 µg L-1 microcosm, time 0.5): 0.029 ± 0.001 µg/L
Concentration ([1]; 10 µg L-1 microcosm, time 1): 0.077 ± 0.004 µg/L
Concentration ([1]; 10 µg L-1 microcosm, time 1.5): 0.012 ± 0.013 µg/L
Concentration ([1]; 10 µg L-1 microcosm, time 2): 0.050 ± 0.011 µg/L
Concentration ([1]; 10 µg L-1 microcosm, time 3): 0.043 ± 0.022 µg/L
Concentration ([1]; 10 µg L-1 microcosm, time 5): 0.070 ± 0.016 µg/L
Concentration ([1]; 10 µg L-1 microcosm, time 8): 0.055 ± 0.019 µg/L
Concentration ([1]; 10 µg L-1 microcosm, time 12): 0.126 ± 0.035 µg/L
Concentration ([1]; 10 µg L-1 microcosm, time 24): 0.182 ± 0.000 µg/L
Concentration ([1]; 100 µg L-1 microcosm, time 0): 0.109 ± 0.023 µg/L
Concentration ([1]; 100 µg L-1 microcosm, time 0.5): 0.132 ± 0.015 µg/L
Concentration ([1]; 100 µg L-1 microcosm, time 1): 0.128 ± 0.038 µg/L
Concentration ([1]; 100 µg L-1 microcosm, time 1.5): 0.146 ± 0.039 µg/L
Concentration ([1]; 100 µg L-1 microcosm, time 2): 0.428 ± 0.019 µg/L
Concentration ([1]; 100 µg L-1 microcosm, time 3): 0.429 ± 0.164 µg/L
Concentration ([1]; 100 µg L-1 microcosm, time 5): 0.616 ± 0.227 µg/L
Concentration ([1]; 100 µg L-1 microcosm, time 8): 0.710 ± 0.193 µg/L
Concentration ([1]; 100 µg L-1 microcosm, time 12): 0.859 ± 0.069 µg/L
Concentration ([1]; 100 µg L-1 microcosm, time 24): 1.302 ± 0.066 µg/L
Concentration ([2]; DAR (dark abiotic), day 5): 2 ± 0 pg/mL
Concentration ([2]; DBR (dark biotic), day 1): 2 ± 1 pg/mL
Concentration ([2]; DBR (dark biotic), day 3): 2 ± 1 pg/mL
Concentration ([2]; DBR (dark biotic), day 5): 2 ± 1 pg/mL
Concentration ([2]; LAR (light abiotic), day 2): 1 ± 0 pg/mL
Concentration ([2]; LAR (light abiotic), day 3): 4 ± 1 pg/mL
Concentration ([2]; LAR (light abiotic), day 4): 3 ± 0 pg/mL
Concentration ([2]; LAR (light abiotic), day 5): 2 ± 1 pg/mL
Concentration ([2]; LAR (light abiotic), day 8): 1 ± 1 pg/mL
Concentration ([2]; LAR (light abiotic), day 9): 2 ± 1 pg/mL
Concentration ([2]; LAR (light abiotic), day 10): 2 ± 0 pg/mL
Concentration ([2]; LAR (light abiotic), day 11): 3 ± 0 pg/mL
Concentration ([2]; LAR (light abiotic), day 12): 3 ± 1 pg/mL
Concentration ([2]; LAR (light abiotic), day 15): 2 ± 1 pg/mL
Concentration ([2]; LAR (light abiotic), day 16): 4 ± 1 pg/mL
Concentration ([2]; LBR (light biotic), day 1): 1 ± 0 pg/mL
Concentration ([2]; LBR (light biotic), day 2): 2 ± 0 pg/mL
Concentration ([2]; LBR (light biotic), day 3): 2 ± 1 pg/mL
Concentration ([2]; LBR (light biotic), day 5): 3 ± 1 pg/mL

NCCC(Oc1ccc(C(F)(F)F)cc1)c1ccccc1 (centres unmarked) [NFL, norfluoxetine]
EF ([1]; 10 µg L-1 microcosm, time 0): 0.784
EF ([1]; 10 µg L-1 microcosm, time 0.5): 0.663
EF ([1]; 10 µg L-1 microcosm, time 1): 0.000
EF ([1]; 10 µg L-1 microcosm, time 1.5): 0.887
EF ([1]; 10 µg L-1 microcosm, time 2): 0.750
EF ([1]; 10 µg L-1 microcosm, time 3): 0.839
EF ([1]; 10 µg L-1 microcosm, time 5): 0.810
EF ([1]; 10 µg L-1 microcosm, time 8): 0.856
EF ([1]; 10 µg L-1 microcosm, time 12): 0.749
EF ([1]; 10 µg L-1 microcosm, time 24): 0.752
enantiomeric fraction (EF) ([1]; 10 µg L^−1 reactor, after further slow removal): > 0.7
EF ([1]; 100 µg L-1 microcosm, time 0): 0.833
EF ([1]; 100 µg L-1 microcosm, time 0.5): 0.826
EF ([1]; 100 µg L-1 microcosm, time 1): 0.858
EF ([1]; 100 µg L-1 microcosm, time 1.5): 0.872
EF ([1]; 100 µg L-1 microcosm, time 2): 0.848
EF ([1]; 100 µg L-1 microcosm, time 3): 0.852
EF ([1]; 100 µg L-1 microcosm, time 5): 0.851
EF ([1]; 100 µg L-1 microcosm, time 8): 0.843
EF ([1]; 100 µg L-1 microcosm, time 12): 0.864
EF ([1]; 100 µg L-1 microcosm, time 24): 0.794
enantiomeric fraction (EF) ([1]; 100 µg L^−1 microcosm): > 0.7
EF ([2]; DAR (dark abiotic), day 5): 0.000
EF ([2]; DBR (dark biotic), day 1): 0.000
EF ([2]; DBR (dark biotic), day 3): 0.333
EF ([2]; DBR (dark biotic), day 5): 0.417
EF ([2]; LAR (light abiotic), day 2): 0.000
EF ([2]; LAR (light abiotic), day 3): 0.358
EF ([2]; LAR (light abiotic), day 4): 0.250
EF ([2]; LAR (light abiotic), day 5): 0.000
EF ([2]; LAR (light abiotic), day 8): 0.000
EF ([2]; LAR (light abiotic), day 9): 0.000
EF ([2]; LAR (light abiotic), day 10): 0.000
EF ([2]; LAR (light abiotic), day 11): 0.000
EF ([2]; LAR (light abiotic), day 12): 0.225
EF ([2]; LAR (light abiotic), day 15): 0.000
EF ([2]; LAR (light abiotic), day 16): 0.225
EF ([2]; LBR (light biotic), day 1): 0.000
EF ([2]; LBR (light biotic), day 2): 0.000
EF ([2]; LBR (light biotic), day 3): 0.292
EF ([2]; LBR (light biotic), day 5): 0.292
